Test results taken from patent EP4467141A1, “PYRAZOLO-QUINOLINES AS SELECTIVE INHIBITORS OF GENOTOXIC STRESS-INDUCED IKK/NF- KB PATHWAYS FOR CANCER THERAPY” (Max-Delbrück-Centrum für Molekulare Medizin in der …, priority 2023, dated 2024).

Assays:
Assay in all cases: Kinase panel study
Assay type in all cases: biochemical
Conditions in all cases: read-out: Percentage of inhibition; for inhibition at 1 µM: 1000nM; for inhibition at 10 µM: 10000nM
CDK9/cyclin T1 = target: T1, CDK9/cyclin T1 (Homo sapiens, UniProt P50750)
T1 construct: purchased Thermo Fisher Scientific
T1 sequence (P50750 whole entry): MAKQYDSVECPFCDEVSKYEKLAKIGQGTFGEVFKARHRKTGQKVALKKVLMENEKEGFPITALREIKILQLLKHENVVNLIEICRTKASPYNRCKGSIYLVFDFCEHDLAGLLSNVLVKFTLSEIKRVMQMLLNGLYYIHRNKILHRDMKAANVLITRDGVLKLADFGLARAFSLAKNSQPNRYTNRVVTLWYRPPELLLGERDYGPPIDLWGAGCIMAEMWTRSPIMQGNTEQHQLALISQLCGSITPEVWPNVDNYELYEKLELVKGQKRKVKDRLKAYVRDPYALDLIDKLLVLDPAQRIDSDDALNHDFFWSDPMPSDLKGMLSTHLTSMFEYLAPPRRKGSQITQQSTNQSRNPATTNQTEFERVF
T1 sequence (O60563 whole entry partner): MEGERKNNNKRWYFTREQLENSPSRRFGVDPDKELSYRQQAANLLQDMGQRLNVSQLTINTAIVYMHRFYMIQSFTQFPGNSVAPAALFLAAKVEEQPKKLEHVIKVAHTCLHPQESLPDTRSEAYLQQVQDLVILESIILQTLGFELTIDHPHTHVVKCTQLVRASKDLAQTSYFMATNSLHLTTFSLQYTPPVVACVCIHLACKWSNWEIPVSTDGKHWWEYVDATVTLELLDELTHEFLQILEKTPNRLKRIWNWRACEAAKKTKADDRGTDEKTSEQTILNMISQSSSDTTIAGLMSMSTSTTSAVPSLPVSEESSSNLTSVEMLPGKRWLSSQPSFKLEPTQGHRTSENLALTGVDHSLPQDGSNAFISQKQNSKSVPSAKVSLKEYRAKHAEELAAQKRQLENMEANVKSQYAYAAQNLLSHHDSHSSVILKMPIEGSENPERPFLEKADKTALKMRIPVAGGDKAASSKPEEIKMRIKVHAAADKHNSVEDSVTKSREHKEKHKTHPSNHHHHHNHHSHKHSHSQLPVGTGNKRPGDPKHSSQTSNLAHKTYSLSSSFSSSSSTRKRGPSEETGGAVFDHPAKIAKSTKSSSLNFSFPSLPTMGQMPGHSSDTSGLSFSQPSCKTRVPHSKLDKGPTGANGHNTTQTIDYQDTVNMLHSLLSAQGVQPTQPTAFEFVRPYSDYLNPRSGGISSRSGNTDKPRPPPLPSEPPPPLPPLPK
In short: (§1)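 Compounds were tested in vitro against the kinase panel by a service lab. Assays followed standard ZLyte or Adapta protocols. Activity was recorded as % inhibition at 10 µM or 1 µM, with IC50 values where determined.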

CDK5/p35 = target: T2, CDK5/p35 (Homo sapiens, UniProt Q00535)
T2 construct: purchased Thermo Fisher Scientific
T2 sequence (Q00535 whole entry): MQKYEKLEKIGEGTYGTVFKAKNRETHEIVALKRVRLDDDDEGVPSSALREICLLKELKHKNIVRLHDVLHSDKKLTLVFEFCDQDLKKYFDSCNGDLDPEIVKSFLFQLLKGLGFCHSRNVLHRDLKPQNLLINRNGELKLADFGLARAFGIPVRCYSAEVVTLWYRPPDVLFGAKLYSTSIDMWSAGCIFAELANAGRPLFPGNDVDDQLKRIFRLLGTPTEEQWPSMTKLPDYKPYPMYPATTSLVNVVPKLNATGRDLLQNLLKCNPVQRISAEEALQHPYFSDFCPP
T2 sequence (Q15078 whole entry partner): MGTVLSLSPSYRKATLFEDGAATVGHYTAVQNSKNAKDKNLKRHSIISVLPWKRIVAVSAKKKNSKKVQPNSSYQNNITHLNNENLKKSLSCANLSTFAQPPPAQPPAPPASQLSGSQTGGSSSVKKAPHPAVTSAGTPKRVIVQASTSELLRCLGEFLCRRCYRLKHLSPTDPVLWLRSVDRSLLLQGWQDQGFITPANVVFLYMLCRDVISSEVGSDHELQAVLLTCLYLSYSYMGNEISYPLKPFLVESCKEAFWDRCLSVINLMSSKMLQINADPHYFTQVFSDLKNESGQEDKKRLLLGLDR
In short: as §1

AURKA (Aurora A) = target: T3, AURKA (Aurora A) (Homo sapiens, UniProt O14965)
T3 construct: purchased Thermo Fisher Scientific
T3 sequence (O14965 1-403): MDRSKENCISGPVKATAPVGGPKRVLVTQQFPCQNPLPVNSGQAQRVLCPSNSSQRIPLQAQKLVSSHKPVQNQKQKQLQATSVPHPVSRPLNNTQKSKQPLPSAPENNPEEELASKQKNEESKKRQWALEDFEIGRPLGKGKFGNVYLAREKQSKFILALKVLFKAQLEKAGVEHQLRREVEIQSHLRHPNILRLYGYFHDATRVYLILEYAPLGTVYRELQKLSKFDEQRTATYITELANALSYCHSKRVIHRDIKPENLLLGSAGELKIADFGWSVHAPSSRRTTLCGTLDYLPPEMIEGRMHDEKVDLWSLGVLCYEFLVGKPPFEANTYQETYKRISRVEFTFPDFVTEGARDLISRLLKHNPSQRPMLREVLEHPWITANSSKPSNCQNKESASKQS
In short: as §1

CAMK1 (CaMK1) = target: T4, CAMK1 (CaMK1) (Homo sapiens, UniProt Q14012)
T4 construct: purchased Thermo Fisher Scientific
In short: as §1

FGFR4 = target: T5, FGFR4 (Homo sapiens, UniProt P22455)
T5 construct: purchased Thermo Fisher Scientific
T5 sequence (P22455 22-802): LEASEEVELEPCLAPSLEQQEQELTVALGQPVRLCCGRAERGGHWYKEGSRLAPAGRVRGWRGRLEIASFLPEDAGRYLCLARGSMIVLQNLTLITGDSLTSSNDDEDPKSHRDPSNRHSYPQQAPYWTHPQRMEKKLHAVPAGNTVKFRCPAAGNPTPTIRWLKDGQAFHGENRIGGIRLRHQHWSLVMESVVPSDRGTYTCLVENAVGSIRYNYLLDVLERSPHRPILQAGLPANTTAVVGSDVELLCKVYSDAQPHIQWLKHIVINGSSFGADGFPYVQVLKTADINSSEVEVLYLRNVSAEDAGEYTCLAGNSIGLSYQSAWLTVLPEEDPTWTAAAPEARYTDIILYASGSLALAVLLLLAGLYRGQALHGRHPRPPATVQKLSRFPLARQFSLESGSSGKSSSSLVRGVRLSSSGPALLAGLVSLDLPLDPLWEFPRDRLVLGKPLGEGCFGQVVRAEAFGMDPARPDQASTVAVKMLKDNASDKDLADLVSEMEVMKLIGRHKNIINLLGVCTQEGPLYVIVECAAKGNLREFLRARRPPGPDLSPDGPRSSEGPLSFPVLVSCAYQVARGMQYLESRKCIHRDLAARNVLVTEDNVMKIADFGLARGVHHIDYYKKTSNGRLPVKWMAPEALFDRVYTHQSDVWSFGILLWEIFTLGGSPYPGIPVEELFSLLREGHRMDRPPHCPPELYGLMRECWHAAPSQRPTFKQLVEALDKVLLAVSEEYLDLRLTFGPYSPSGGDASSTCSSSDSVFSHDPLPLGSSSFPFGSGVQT
In short: as §1

SGK (SGK1) = target: T6, SGK (SGK1) (Homo sapiens, UniProt O00141)
T6 construct: purchased Thermo Fisher Scientific
T6 sequence (O00141 1-431): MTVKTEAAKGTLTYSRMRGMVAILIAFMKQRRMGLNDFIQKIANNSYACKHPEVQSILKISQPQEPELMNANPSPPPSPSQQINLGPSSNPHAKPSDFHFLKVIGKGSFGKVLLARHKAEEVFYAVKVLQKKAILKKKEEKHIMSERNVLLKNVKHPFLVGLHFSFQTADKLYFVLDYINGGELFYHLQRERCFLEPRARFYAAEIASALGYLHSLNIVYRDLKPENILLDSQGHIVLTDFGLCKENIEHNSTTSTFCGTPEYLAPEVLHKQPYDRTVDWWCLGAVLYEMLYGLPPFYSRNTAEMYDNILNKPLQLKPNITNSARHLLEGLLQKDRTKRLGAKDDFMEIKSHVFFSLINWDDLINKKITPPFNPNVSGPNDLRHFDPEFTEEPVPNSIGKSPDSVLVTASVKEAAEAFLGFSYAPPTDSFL
In short: as §1

MATK (HYL) = target: T7, MATK (HYL) (Homo sapiens, UniProt P42679)
T7 construct: purchased Thermo Fisher Scientific
T7 sequence (P42679 1-507): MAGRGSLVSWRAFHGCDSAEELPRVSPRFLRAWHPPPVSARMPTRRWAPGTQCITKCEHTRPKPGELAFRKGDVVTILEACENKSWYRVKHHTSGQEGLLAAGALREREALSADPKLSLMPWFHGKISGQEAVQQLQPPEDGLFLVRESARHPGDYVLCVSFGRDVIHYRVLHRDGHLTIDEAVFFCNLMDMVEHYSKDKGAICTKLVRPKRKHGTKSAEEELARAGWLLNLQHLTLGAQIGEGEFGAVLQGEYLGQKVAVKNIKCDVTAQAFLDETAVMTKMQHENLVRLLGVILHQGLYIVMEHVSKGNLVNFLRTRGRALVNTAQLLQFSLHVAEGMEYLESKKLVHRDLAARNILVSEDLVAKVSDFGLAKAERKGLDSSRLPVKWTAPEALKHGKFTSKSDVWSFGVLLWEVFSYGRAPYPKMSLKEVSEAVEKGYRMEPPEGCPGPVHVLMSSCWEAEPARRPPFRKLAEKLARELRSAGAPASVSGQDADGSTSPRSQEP
In short: as §1

JAK2 = target: T8, JAK2 (Homo sapiens, UniProt O60674)
T8 construct: purchased Thermo Fisher Scientific
T8 sequence (O60674 whole entry): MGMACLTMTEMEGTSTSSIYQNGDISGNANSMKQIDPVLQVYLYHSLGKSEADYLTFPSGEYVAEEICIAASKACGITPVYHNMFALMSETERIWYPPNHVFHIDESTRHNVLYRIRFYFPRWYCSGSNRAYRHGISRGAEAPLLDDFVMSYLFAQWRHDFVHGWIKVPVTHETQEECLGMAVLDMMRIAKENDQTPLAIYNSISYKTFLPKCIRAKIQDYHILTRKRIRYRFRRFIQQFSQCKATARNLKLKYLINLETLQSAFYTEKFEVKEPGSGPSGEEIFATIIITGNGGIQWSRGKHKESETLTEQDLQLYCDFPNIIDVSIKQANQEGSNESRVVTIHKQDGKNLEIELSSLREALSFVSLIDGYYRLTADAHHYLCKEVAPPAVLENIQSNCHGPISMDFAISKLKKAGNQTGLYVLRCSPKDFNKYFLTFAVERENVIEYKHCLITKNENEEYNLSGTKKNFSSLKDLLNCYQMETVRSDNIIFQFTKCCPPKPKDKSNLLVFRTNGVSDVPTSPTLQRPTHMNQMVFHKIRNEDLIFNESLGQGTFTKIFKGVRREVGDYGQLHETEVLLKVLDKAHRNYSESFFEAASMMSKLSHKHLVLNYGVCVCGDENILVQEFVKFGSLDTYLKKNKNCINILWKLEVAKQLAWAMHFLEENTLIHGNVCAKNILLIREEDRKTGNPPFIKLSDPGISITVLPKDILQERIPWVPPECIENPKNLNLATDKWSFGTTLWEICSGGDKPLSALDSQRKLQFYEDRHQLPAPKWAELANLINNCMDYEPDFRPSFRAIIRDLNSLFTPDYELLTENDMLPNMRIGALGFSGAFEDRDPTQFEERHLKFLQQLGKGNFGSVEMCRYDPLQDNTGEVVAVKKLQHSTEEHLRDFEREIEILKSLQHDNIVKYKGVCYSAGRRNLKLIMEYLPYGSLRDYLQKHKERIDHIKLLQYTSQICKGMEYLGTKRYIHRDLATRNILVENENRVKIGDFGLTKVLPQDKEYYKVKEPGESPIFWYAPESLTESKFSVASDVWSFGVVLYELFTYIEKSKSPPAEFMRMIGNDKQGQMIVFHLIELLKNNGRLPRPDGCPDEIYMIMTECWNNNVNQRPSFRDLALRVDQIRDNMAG
In short: as §1

SMILES | inhibition at 1 µM (CDK9/cyclin T1) [%] | inhibition at 10 µM (CDK9/cyclin T1) [%] | inhibition at 1 µM (CDK5/p35) [%] | inhibition at 10 µM (CDK5/p35) [%] | inhibition at 1 µM (AURKA (Aurora A)) [%] | inhibition at 10 µM (AURKA (Aurora A)) [%] | inhibition at 1 µM (CAMK1 (CaMK1)) [%] | inhibition at 10 µM (CAMK1 (CaMK1)) [%] | inhibition at 1 µM (FGFR4) [%] | inhibition at 10 µM (FGFR4) [%] | inhibition at 1 µM (SGK (SGK1)) [%] | inhibition at 10 µM (SGK (SGK1)) [%] | inhibition at 1 µM (MATK (HYL)) [%] | inhibition at 10 µM (MATK (HYL)) [%] | inhibition at 1 µM (JAK2) [%] | inhibition at 10 µM (JAK2) [%]
COc1ccc2c(c1OC)c(=O)n1c3ccc(O)cc3c3ccnc2c31 [MW01, 5-Hydroxy-10,11-dimethoxy-9H-benzo[c]indolo[3,2,1-ij][1,5]naphthyridin-9-one] | 11 | 20 | 17 | 14 | 8 | 18 | -12 | -2 | 13 | 37 | -4 | 15 | 14 | 2 | 15 | 48
COc1ccc2cc3c(N)nn(C(=O)c4cccc(N(C)C)c4)c3nc2c1 [MW05, (3-Amino-7-methoxypyrazolo[3,4-b]quinolin-1-yl)-[3-(dimethylamino)phenyl]methanone] | 19 | 57 | 5 | 7 | 7 | -5 | -11 | -5 | 13 | -4 | -2 | -12 | 13 | 13 | -3 | -20
